Test results from paper PMC6938330, “Crystal structures of p120RasGAP N-terminal SH2 domain in its apo form and in complex with a p190RhoGAP phosphotyrosine peptide” (PLoS ONE, 2019).
“And” between values parts separate entries of the source, which are not always exact repeats. Equal values may be shown once. One block for each molecule: values may come before it. Where a SMILES comes first, the peptide text is derived from it. [ ]: non-standard residue; d: D form. pY = N[C@@H](Cc1ccc(OP(=O)(O)O)cc1)C(=O)O

How the values were obtained:
[1] = target: T1, N-terminal SH2 domain of p120RasGAP (Homo sapiens, UniProt P20936, C236S/C261S); experiment: Isothermal titration calorimetry (ITC), wild-type N-SH2; conditions: 20mM Tris 7.4, 150mM NaCl, independent binding model
T1 construct: cDNA of residues 174 through 280 of human p120RasGAP (UniProt ID: P20936); made in house; host or cells: E. coli Rosetta(DE3)
T1 sequence (P20936 174-280 C236S/C261S): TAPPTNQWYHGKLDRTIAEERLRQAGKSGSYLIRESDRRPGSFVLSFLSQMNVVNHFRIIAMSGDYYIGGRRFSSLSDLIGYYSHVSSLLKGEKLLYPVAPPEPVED
Description: (§1) cDNA of residues 174 through 280 of human p120RasGAP (UniProt ID: P20936) encoding the N-terminal SH2 domain tagged was subcloned into a modified pET28a vector with an N-terminal hexahistidine tag and TEV protease recognition sequence. Two native cysteines, C236 and C261, were mutated to serine to prevent disulfide bridge formation. Following transformation into Rosetta(DE3) cells, a 1L culture was induced overnight at OD600 of 0.6–0.8 and 18°C using 0.2 mM IPTG. Cells were harvested by centrifugation and resuspended in lysis buffer (50 mM HEPES pH 7.3, 500 mM NaCl). Lysis was facilitated by lysozyme addition and three freeze/thaw cycles, prior to sonication and DNAse I addition. Clarified lysate was prepared by centrifugation at 5000 x g at 4°C and incubated with nickel beads (Ni-NTA Agarose, Qiagen) for 1 hr at 4°C to capture hexahistidine-tagged protein. Following washing with 3 column volumes of wash buffer (50 mM HEPES pH 7.3, 500 mM NaCl, 20mM imidazole), TEV protease was added overnight at 4 °C to cleave the SH2 domain protein from the hexahistidine-tag. The next day, flow through containing tag-free SH2 domain protein was collected and the beads were washed with several column volumes of wash buffer to fully remove the cleaved protein from the beads. Size exclusion chromatography (Superdex 75, GE Healthcare) was performed on p120RasGAP N-SH2 in 20 mM Tris pH 7.4 and 150 mM NaCl. Yield was 20 mg/L culture. Protein was concentrated by centrifugal filter (Amicon Ultra, Millipore Sigma).
(§2) A synthetic 13 amino acid peptide of sequence EEENI(p-Tyr)SVPHDST native to p190RhoGAP residues 1100 to 1112 phosphorylated at Tyr-1105, with N-terminal acetylation and C-terminal amidation, was commercially synthesized (GenScript) and re-suspended in sterile-filtered water.
(§3) The N-SH2 protein and pTyr1105 peptide were prepared for ITC by overnight dialysis in a common buffer with a 20mM Tris 7.4, 150mM NaCl composition. Slide-A-Lyzer Dialysis Cassettes with a molecular weight cut-off of 3,500 Da were used for protein dialysis and Micro Float-A-Lyzer Dialysis devices with a 100–500 Da cut-off for peptide dialysis. Samples were retrieved from their cartridges, spun down for 10 minutes at 4°C. Concentrations were measured using a Nanodrop spectrophotometer at 280 nm. To determine peptide concentration, a phosphotyrosine extinction coefficient of 458.6 M^-1cm^-1 at pH 7.4 was used. Two ITC experiments were performed using a Nano-ITC (TA Instruments). Both protein and peptide were degassed for 3 minutes prior to loading. 350 μL of protein were injected into the sample cell. The injection burette was loaded with 52 μL of peptide. 20 injections of 2.5 μL of peptide, each spanning 300 seconds, were performed per ITC run. Results were analyzed using the nano-ITC software, through fitting to an independent binding model.
We conducted isothermal titration calorimetry to assess the interaction between the N-terminal SH2 domain of p120RasGAP and the p190RhoGAP pTyr-1105 peptide. We injected the p190RhoGAP pTyr-1105 peptide at a concentration of 78.5 μM into N-SH2 at a concentration of 15 μM. Averaged over two independent experiments we observe a Kd of 0.3 ± 0.1 μM (Fig 5A).

[2] = system: R207A mutated N-SH2 (p120RasGAP); experiment: Isothermal titration calorimetry (ITC), R207A mutant N-SH2; type: binding, human
Description: (§4) A mutant form, with R207A mutation, was introduced by QuikChange mutagenesis (Agilent) using forward and reverse primers (5'-[…]-3', 5'- […]-3’). Expression and purification were by identical methods as wild type protein. Yield for the mutant was 4 mg/L culture. Both wild type and mutant constructs elute from size exclusion chromatography as monodisperse peaks.
as §2
as §3, with “Two ITC experiments were performed using a Nano-ITC (TA Instruments). Both protein and peptide were degassed for 3 minutes prior to loading. 350 μL of protein were injected into the sample cell. The injection burette was loaded with 52 μL of peptide. 20 injections of 2.5 μL of peptide, each spanning 300 seconds, were performed per ITC run.” left out, “model. […]” for “model.”

[3] = system: wild-type p120RasGAP N-SH2; experiment: Native PAGE gel shift, wild-type N-SH2; type: binding, human; conditions: saturating peptide concentrations; protein 0.08 mM, peptide 0.02 to 0.15 mM (peptide:protein 0.25 to 1.9); on ice 10 min; 50 mM Tris pH 7.4; 4–20% gel, pH 8.3, 200 V 1 h; Coomassie
Description: as §1, with “Size exclusion chromatography (Superdex 75, GE Healthcare) was performed on p120RasGAP N-SH2 in 20 mM Tris pH 7.4 and 150 mM NaCl. Yield was 20 mg/L culture. Protein was concentrated by centrifugal filter (Amicon Ultra, Millipore Sigma).” left out

[4] = system: R207A mutant p120RasGAP N-SH2; experiment: Native PAGE gel shift, R207A mutant N-SH2; type: binding, human; conditions: protein 0.08 mM, peptide 0.02 to 0.15 mM (peptide:protein 0.25 to 1.9); on ice 10 min; 50 mM Tris pH 7.4; 4–20% gel, pH 8.3, 200 V 1 h; Coomassie
Description: as §4, §2
A serial dilution series of pTyr-1105 phosphopeptide was performed in dilution buffer (50 mM Tris pH 7.4), and mixed with wild-type or R207A mutant N-terminal SH2 domain protein for a final protein concentration of 0.08 mM and a phosphopeptide concentration ranging from 0.02 mM to 0.15 mM (peptide:protein ratio ranging from 0.25 to 1.9). The protein-peptide mixtures, or protein alone as negative control, were incubated on ice for 10 minutes and then centrifuged for 1 minute at 4 °C. 10 μL of 2X native protein sample buffer (62.5 mM Tris HCL pH 6.8, 40% glycerol, 0.01% bromophenol blue) was then added to all samples. […]

[5] = target: T2, p120RasGAP N-terminal SH2 domain (residues 174-280, C236S, C261S) (human, UniProt P20936 174-280, C236S | C261S); experiment: ITC; peptide in the burette injected into N-SH2 in the cell (78.5 μM into 15 μM wild type; 120 μM into 15 μM R207A); 20 mM Tris 7.4, 150 mM NaCl; Nano-ITC, 20 injections of 2.5 μL; independent binding model; two runs; conditions: both partners purified
T2 construct: human p120RasGAP (RASA1), residues 174 through 280, the N-terminal SH2 domain; two native cysteines mutated to serine; The His6 tag was removed with TEV protease; also called p120RasGAP N-SH2; N-SH2; source: E. coli Rosetta(DE3), purified (Ni-NTA, TEV cleavage, Superdex 75 SEC); not shown: His6, N-terminal, cleaved
T2 sequence (looked up): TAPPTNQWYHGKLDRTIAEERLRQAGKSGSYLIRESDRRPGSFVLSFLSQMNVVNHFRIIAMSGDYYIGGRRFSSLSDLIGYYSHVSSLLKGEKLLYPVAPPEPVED

[6] = target: p190RhoGAP pTyr-1105 peptide pTyr-1105 peptide (Homo sapiens, UniProt Q9NRY4, pTyr1105); experiment: ITC

Kd ([1]; averaged over two independent ITC experiments, peptide at 78.5 μM injected into N-SH2 (residues 174-280, C236S/C261S) at 15 μM, 20 injections of 2.5 μL, 300 s each, read-out: Kd (dissociation constant)): 0.3 ± 0.1 µM
TΔS ([1]; run 1 of two): -37.2 kJ/mol
ΔG ([1]; run 1 of two): -36.4 kJ/mol
ΔH ([1]; run 1 of two): -73.6 kJ/mol
TΔS ([1]; run 2 of two): -20.5 kJ/mol
ΔG ([1]; run 2 of two): -37.7 kJ/mol
ΔH ([1]; run 2 of two): -58.2 kJ/mol
heat of binding ([2]; peptide at 120 μM injected into R207A mutated N-SH2 at 15 μM, 20mM Tris 7.4, 150mM NaCl): do not observe measurable heat
Molecule: CC[C@H](C)[C@H](NC(=O)[C@H](CC(N)=O)NC(=O)[C@H](CCC(=O)O)NC(=O)[C@H](CCC(=O)O)NC(=O)[C@H](CCC(=O)O)NC(C)=O)C(=O)N[C@@H](Cc1ccc(OP(=O)(O)O)cc1)C(=O)N[C@@H](CO)C(=O)N[C@H](C(=O)N1CCC[C@H]1C(=O)N[C@@H](Cc1c[nH]cn1)C(=O)N[C@@H](CC(=O)O)C(=O)N[C@@H](CO)C(=O)N[C@H](C(N)=O)[C@@H](C)O)C(C)C [p190RhoGAP pTyr-1105 peptide] (Ac-EEENI[pY]SVPHDST-NH2)
interaction upon mutation of the FLVR motif arginine residue ([2]; R207A mutant, summarising statement of the Conclusions (ITC and native PAGE)): abolishes interaction
mobility shift in native gel [3]: significant increase in its mobility in the gel
mobility shift in native gel [4]: fails to shift

Kd [5]: 0.24 µM and 0.43 µM
dH [5]: -73.6 kJ/mol and -58.2 kJ/mol
stoichiometry N [5]: 0.724 and 0.63
B1: p190RhoGAP pTyr-1105 phosphopeptide EEENI(p-Tyr)SVPHDST (residues 1100-1112) (peptide)
peptide: Ac-EEENI[pY]SVPHDST-NH2
SMILES: CC[C@H](C)[C@H](NC(=O)[C@H](CC(N)=O)NC(=O)[C@H](CCC(=O)O)NC(=O)[C@H](CCC(=O)O)NC(=O)[C@H](CCC(=O)O)NC(C)=O)C(=O)N[C@@H](Cc1ccc(OP(=O)(O)O)cc1)C(=O)N[C@@H](CO)C(=O)N[C@H](C(=O)N1CCC[C@H]1C(=O)N[C@@H](Cc1c[nH]cn1)C(=O)N[C@@H](CC(=O)O)C(=O)N[C@@H](CO)C(=O)N[C@H](C(N)=O)[C@@H](C)O)C(C)C
notes: The sixth residue (Y) is phosphotyrosine; also called pTyr1105 peptide; source: synthetic peptide (GenScript)

Kd [6]: 0.3 µM
B2: p120RasGAP N-terminal SH2 (protein)
chain: WYHGKLDRTIAEERLRQAGKSGSYLIRESDRRPGSFVLSFLSQMNVVNHFRIIAMCGDYYIGGRRFSSLSDLIGYYSHVSCLLKGEKLLYPV
